The test concerns HIV-I. As to the kind of experiment: p24 antigen capture assay in HIV-I infected H9 lymphocytes (in vivo assay of HIV protease activity, Example 53). Format: cell-based. As to conditions: H9 lymphocytes infected with HIV-I, three days at 37 C, relative to infected, untreated cultures; read-out: concentration showing 50% inhibition of p24 formation. How it is done: A p24 capture assay (see Example 50 hereinbelow) provides an "in vivo" method for determining HIV-protease activity. The inhibitor is added to cells infected with HIV, […]. Inhibition of propagation of HIV-protease in cells is measured by the absence or presence of p24, which is generated by HIV protease.
H9 lymphocytes (1x 10^7 cells/ml) were incubated in the presence or absence of HIV-I for 1 hour at 37 C. Cells were washed thoroughly to remove unadsorbed virions and resuspended at 4x10^5 cells/ml in culture medium. Aliquots (one milliliter) were placed in wells of 24 well culture plates containing an equal volume of test compound (diluted in culture medium). After incubation for three days at 37 C, cell density of uninfected cultures was determined to assess toxicity of test compound. A p24 antigen capture assay was used to determine the level of HIV infection in HIV treated cultures. The ability of test compounds to inhibit HIV replication was measured at different concentrations of test compound relative to infected, untreated cultures.

Regarding `CC[C@H](C)[C@H](NC(=O)[C@@H]1CCCN1CC(Cc1ccccc1)NC(=O)[C@H](CC(N)=O)NC(=O)[C@H](Cc1ccccc1)NC(=O)OC(C)(C)C)C(=O)OCc1ccccc1` (stereo partly drawn) [Example 25, N-[N-[2-[[N2-[N-[(1,1-Dimethylethoxy)carbonyl]-L-phenylalanyl]-L-asparagyl]amino]-3-phenylpropyl]-L-prolyl]-L-isoleucinbenzylester], the IC50 came out at 200 µM.

The values above are taken from patent publication EP0361341A2, “Therapeutics for aids based on inhibitors of HIV protease” (MILES INC., priority 1988, dated 1990).
